Where two headings read alike, the source gives them in different places.
Key:
[1] = molecular target: T1, P-gp (Homo sapiens, UniProt P08183); assay: P-gp substrate potential using MDR1-MDCK monolayers (bidirectional permeability +/- valspodar); assay type: in vitro ADME
T1 construct: expressed in transfected cells; host or cells: MDR1-MDCK (MDCK cells expressing MDR1)
Experimental: The objective of this study was to determine the P-gp substrate potential of one test article using MDR1-MDCK monolayers.
Each determination was performed in duplicate. […] Analytical conditions are outlined in Appendix 1.
Papp=(dCr/dt)×Vr/(A×CA) (1)
Percent Recovery=100×((Vr×Cr^final)+(Vd×Cd^final))/(Vd×CN) (2) • where • dC/dt is the slope of the cumulative concentration in the receiver compartment versus time in μM s^−1; • Vr is the volume of the receiver compartment in cm^3; • Vd is the volume of the donor compartment in cm^3; • A is the area of the insert (1.13 cm^2 for 12-well); • CA is the average of the nominal dosing concentration and the measured 120 minute donor concentration in μM; • CN is the nominal concentration of the dosing solution in μM; • Cr^final is the cumulative receiver concentration in μM at the end of the incubation period; • Cd^final is the concentration of the donor in μM at the end of the incubation period.
Efflux ratio (ER) is defined as Papp (B-to-A)/Papp (A-to-B).

[2] = Brain concentration and brain/plasma ratio in mouse after 10 mg/kg p.o.; assay type: in vivo; settings: for concentration at 2 h / concentration at 4 h / concentration at 8 h / concentration at 24 h: po, 10 mg/kg
[3] = test system: orthotopic U87MG-luc human glioblastoma; assay: Efficacy in combination with temozolomide against orthotopic U87MG-luc human glioblastoma in mice (bioluminescence); assay type: in vivo; settings: glioblastoma model, combination with TMZ
Experimental: An efficacy and comparison study between Compound 1 and abemaciclib, in combination with temozolomide (TMZ), against orthotopic U87MG-luc human glioblastoma in mice was conducted. In each study, TMZ was dosed PO at 6 mg/kg, QD×5, and either Compound 1 or abemaciclib was dosed PO at 100 mg/kg. Tumor growth was observed by bioluminescence. […] From a broad perspective, the significant differentiation between Compound 1 and abemaciclib in a brain disease model can be traced to their distinct molecular structures. Female Envigo Nude Mice (Hsd:Athymic Nude-Fox1^nu) were used in this study. They were 6-7 weeks old on Day 1 of the experiment. The animals were fed irradiated Harlan 2918.15 Rodent Diet and water ad libitum. Animals were housed in INNOVIVE® disposable ventilated caging with corn cob bedding inside BIOBUBBLE® Clean Rooms that provide H.E.P.A filtered air into the bubble environment at 100 complete air changes per hour. All treatments, body weight determinations, and tumor measurements were carried out in the bubble environment. […] An aliquot of the homogeneous cell suspension was diluted in a trypan blue solution and counted using a Luna automated cell counter. […] Following implantation, an aliquot of the remaining cells was diluted with a trypan blue solution and counted to determine the post-implantation cell viability. […]

[4] = brain, PO 10 mg/kg, individual animal R1, read-out: Brain Concentration, R1 + 3n
[5] = brain, PO 10 mg/kg, individual animal R2, read-out: Brain Concentration, R2 + 3n
[6] = brain, PO 10 mg/kg, individual animal R3, read-out: Brain Concentration, R3 + 3n
[7] = brain, PO 10 mg/kg, mean, read-out: Brain Concentration, Mean PO
[8] = plasma, PO 10 mg/kg, individual animal R1, read-out: Plasma Concentration, R1 + 3n
[9] = plasma, PO 10 mg/kg, individual animal R2, read-out: Plasma Concentration, R2 + 3n
[10] = plasma, PO 10 mg/kg, individual animal R3, read-out: Plasma Concentration, R3 + 3n
[11] = plasma, PO 10 mg/kg, mean, read-out: Plasma Concentration, Mean PO

T1 sequence (P08183 whole entry): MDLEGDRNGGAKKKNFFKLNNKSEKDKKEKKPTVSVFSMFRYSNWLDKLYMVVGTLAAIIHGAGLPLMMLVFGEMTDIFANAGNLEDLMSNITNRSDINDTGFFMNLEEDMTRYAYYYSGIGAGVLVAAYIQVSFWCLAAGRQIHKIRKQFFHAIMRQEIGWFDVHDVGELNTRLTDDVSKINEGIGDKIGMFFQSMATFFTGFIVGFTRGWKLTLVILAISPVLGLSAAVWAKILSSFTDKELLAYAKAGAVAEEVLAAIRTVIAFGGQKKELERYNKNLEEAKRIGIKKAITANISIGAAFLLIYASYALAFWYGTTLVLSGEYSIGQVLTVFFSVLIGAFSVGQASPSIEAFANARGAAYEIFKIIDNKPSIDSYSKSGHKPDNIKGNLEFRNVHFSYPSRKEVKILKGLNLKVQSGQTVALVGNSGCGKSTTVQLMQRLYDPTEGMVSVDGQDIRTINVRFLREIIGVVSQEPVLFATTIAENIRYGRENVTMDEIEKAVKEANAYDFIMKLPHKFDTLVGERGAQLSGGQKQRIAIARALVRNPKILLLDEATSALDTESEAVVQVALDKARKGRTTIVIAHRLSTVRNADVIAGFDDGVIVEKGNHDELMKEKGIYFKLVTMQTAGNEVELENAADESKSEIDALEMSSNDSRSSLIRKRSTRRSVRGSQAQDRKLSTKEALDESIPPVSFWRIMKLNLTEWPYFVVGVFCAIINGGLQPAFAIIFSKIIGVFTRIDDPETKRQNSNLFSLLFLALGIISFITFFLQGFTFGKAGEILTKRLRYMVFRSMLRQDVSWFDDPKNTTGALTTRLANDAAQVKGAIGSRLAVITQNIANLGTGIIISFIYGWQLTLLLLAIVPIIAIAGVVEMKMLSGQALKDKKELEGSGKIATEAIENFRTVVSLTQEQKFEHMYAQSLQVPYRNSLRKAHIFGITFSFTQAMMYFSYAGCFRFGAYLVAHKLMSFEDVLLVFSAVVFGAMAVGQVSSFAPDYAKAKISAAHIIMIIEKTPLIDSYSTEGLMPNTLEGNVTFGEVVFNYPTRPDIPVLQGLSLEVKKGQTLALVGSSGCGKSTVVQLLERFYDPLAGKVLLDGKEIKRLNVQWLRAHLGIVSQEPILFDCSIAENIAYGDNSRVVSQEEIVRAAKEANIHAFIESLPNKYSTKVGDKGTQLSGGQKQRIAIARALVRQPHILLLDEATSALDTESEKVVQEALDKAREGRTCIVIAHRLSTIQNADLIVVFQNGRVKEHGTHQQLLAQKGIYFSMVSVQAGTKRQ

CCN1CCN(Cc2ccc(Nc3ncc(F)c(-c4ccc5nn(C)c(C(C)C)c5c4)n3)nc2)CC1 [Compound 1, N-(5-((4-ethylpiperazin-1-yl)methyl)pyridin-2-yl)-5-fluoro-4-(3-isopropyl-2-methyl-2H-indazol-5-yl)pyrimidin-2-amine]
P-gp substrate ([1]; MDR1-MDCK monolayers, conclusion in words): not a substrate for P-gp | P-gp Substrate Classification ([1]; MDR1-MDCK, 5 μM, +/− 1 μM valspodar): Negative (ER≥2.0 without valspodar, and reduced by <50% with valspodar: Negative) | recovery at 120 min, 5 μM ([1]; dog, MDCK-MDR1, pH 7.4, MDR1-MDCK, 5 μM, A-to-B, without valspodar): 22% | Papp A→B at 120 min, 5 μM ([1]; dog, MDCK-MDR1, pH 7.4, MDR1-MDCK, 5 μM, A-to-B, without valspodar, average, read-out: Papp AVG): 5.34 ×10⁻⁶ cm/s | Papp A→B at 120 min, 5 μM ([1]; dog, MDCK-MDR1, pH 7.4, MDR1-MDCK, 5 μM, A-to-B, without valspodar, replicate R1, read-out: Papp R1): 5.25 ×10⁻⁶ cm/s | Papp A→B at 120 min, 5 μM ([1]; dog, MDCK-MDR1, pH 7.4, MDR1-MDCK, 5 μM, A-to-B, without valspodar, replicate R2, read-out: Papp R2): 5.43 ×10⁻⁶ cm/s | recovery at 120 min, 5 μM ([1]; dog, MDCK-MDR1, pH 7.4, MDR1-MDCK, 5 μM, B-to-A, without valspodar): 51% | Papp B→A at 120 min, 5 μM ([1]; dog, MDCK-MDR1, pH 7.4, MDR1-MDCK, 5 μM, B-to-A, without valspodar, average, read-out: Papp AVG): 7.77 ×10⁻⁶ cm/s | Papp B→A at 120 min, 5 μM ([1]; dog, MDCK-MDR1, pH 7.4, MDR1-MDCK, 5 μM, B-to-A, without valspodar, replicate R1, read-out: Papp R1): 7.14 ×10⁻⁶ cm/s | Papp B→A at 120 min, 5 μM ([1]; dog, MDCK-MDR1, pH 7.4, MDR1-MDCK, 5 μM, B-to-A, without valspodar, replicate R2, read-out: Papp R2): 8.4 ×10⁻⁶ cm/s | recovery at 120 min, 5 μM ([1]; dog, MDCK-MDR1, pH 7.4, with valspodar 1 μM, MDR1-MDCK, 5 μM, A-to-B, + 1 μM Valspodar): 19% | recovery at 120 min, 5 μM ([1]; dog, MDCK-MDR1, pH 7.4, with valspodar 1 μM, MDR1-MDCK, 5 μM, B-to-A, + 1 μM Valspodar): 63% | efflux ratio at 120 min, 5 μM ([1]; dog, pH 7.4, MDR1-MDCK, Papp (B-to-A)/Papp (A-to-B), without valspodar): 1.5 | Brain concentration relative to that of abemaciclib ([2]; 10 mg/kg p.o., higher than abemaciclib): approximately 3 fold | Kp ([2]; PO 10 mg/kg, brain AUC0-last / plasma AUC0-last, read-out: AUC0-last Ratio, brain/plasma (B/P) ratio): 1.43 | Brain AUC0-last ([2]; PO 10 mg/kg, brain, from mean concentrations): 11966 ng·h/g | AUC(0-t) ([2]; PO 10 mg/kg, plasma, from mean concentrations, read-out: Plasma AUC0-last): 8380 ng·h/mL | concentration at 2 h [2, 4]: 954 ng/g | concentration at 2 h [2, 5]: 630 ng/g | concentration at 2 h [2, 6]: 1100 ng/g | concentration at 2 h [2, 7]: 894 ng/g | concentration at 4 h [2, 4]: 1190 ng/g | concentration at 4 h [2, 5]: 1060 ng/g | concentration at 4 h [2, 6]: 1220 ng/g | concentration at 4 h [2, 7]: 1160 ng/g | concentration at 8 h [2, 4]: 1150 ng/g | concentration at 8 h [2, 5]: 1380 ng/g | concentration at 8 h [2, 6]: 1220 ng/g | concentration at 8 h [2, 7]: 1250 ng/g | concentration at 24 h [2, 4]: 9.06 ng/g | concentration at 24 h [2, 5]: 8.64 ng/g | concentration at 24 h [2, 6]: 15.8 ng/g | concentration at 24 h [2, 7]: 11.2 ng/g | concentration at 2 h [2, 8]: 833 ng/mL | concentration at 2 h [2, 9]: 500 ng/mL | concentration at 2 h [2, 10]: 748 ng/mL | concentration at 2 h [2, 11]: 694 ng/mL | concentration at 4 h [2, 8]: 669 ng/mL | concentration at 4 h [2, 9]: 543 ng/mL | concentration at 4 h [2, 10]: 1180 ng/mL | concentration at 4 h [2, 11]: 797 ng/mL | concentration at 8 h [2, 8]: 868 ng/mL | concentration at 8 h [2, 9]: 1030 ng/mL | concentration at 8 h [2, 10]: 722 ng/mL | concentration at 8 h [2, 11]: 873 ng/mL | concentration at 24 h [2, 8]: 4.36 ng/mL | concentration at 24 h [2, 9]: 5.3 ng/mL | concentration at 24 h [2, 10]: 10.6 ng/mL | concentration at 24 h [2, 11]: 6.75 ng/mL | In vivo efficacy relative to abemaciclib [3]: superior in vivo efficacy

— patent US20220079944A1, “2H-INDAZOLE DERIVATIVES AS THERAPEUTIC AGENTS FOR BRAIN CANCERS AND BRAIN METASTASES” (BETA PHARMA, INC., priority 2019, published 2022)
